Laboratory results taken from patent EP0702683B1, “06-SUBSTITUTED GUANINE DERIVATIVES, A PROCESS FOR THEIR PREPARATION AND THEIR USE IN TREATING TUMOUR CELLS” (Cancer Research Technology Limited, priority 1993, dated 1994).
Where two headings read alike, the source gives them in different places.

What was measured:
[1] = Stability of inactivators at 37°C (spectrophotometric half life); assay type: physicochemical
Experimental: Inactivators (10mM in DMSO) were diluted to 0.1mM in prewarmed degassed buffer I (1mM EDTA, 50mM Tris pH 8.3) or PBS (pH 7-7.2). […] Samples were immediately transferred to a CARY13 spectrophotometer (cuvette block held at 37°C) and scanned at an appropriate wavelength (according to the spectral properties of the compound) at 3-10 minute intervals for up to 80 hours. The results were expressed as percentage absorbance change versus time and T1/2 values (half life) extrapolated from this.

ATase [2] = molecular target: T1, ATase (Rattus norvegicus, UniProt P24528); experiment: Inactivation of ATase activity in Yoshida cells; assay type: cell-based
T1 construct: endogenous in cells; host or cells: Yoshida
T1 sequence (P24528 1-209): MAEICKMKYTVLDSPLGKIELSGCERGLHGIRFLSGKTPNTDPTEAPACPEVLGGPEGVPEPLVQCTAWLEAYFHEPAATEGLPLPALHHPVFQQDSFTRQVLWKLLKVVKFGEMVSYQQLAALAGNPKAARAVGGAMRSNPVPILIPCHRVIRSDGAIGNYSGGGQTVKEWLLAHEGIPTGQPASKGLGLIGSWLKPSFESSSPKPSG
Experimental: (§1) Mammalian cells were cultured under standard conditions. For example, Raji (a human lymphoblastoid cell line from a Burkitt's lymphoma) cells were grown in suspension culture in RPMI medium supplemented with 10% horse serum. A375M cells are human melanoma cells from which the xenografts described below were established following subcutaneous injection into nude mice: WiDr cells are a human colon carcinoma cell line: Hamster+120 cells are a mitozolomide-selected subline of a Chinese hamster lung fibroblast V79 cell line called RJKO: Yoshida cells are a rat carcinosarcoma cell line and YRbus is a busulphan resistant subline thereof: XP cells are an SV40-transformed fibroblast cell line originally from the skin of a Xeroderma pigmentosum patient, pHMGhAT2b cells are a clone of these cells that have been transfected with a mammalian cell expression vector containing the human ATase cDNA and pHMGla cells are a clone that have been transfected with the expression vector only (i.e. one not containing the human ATase cDNA). Cell pellets were resuspended in cold (4°C) buffer I containing 2 µg/ml leupeptin and sonicated for 10 seconds at 12 µ peak to peak distance. After cooling in ice, the cells were sonicated for a further 10 seconds at 18 µ. Immediately after sonication, 0.01 volumes of 8.7 mg/ml phenylmethanesulphonylfluoride in ethanol was added and the sonicates centrifuged at 15 000 g for 10 minutes at 4°C to pellet cell debris. The supernatant was kept for determination of ATase activity (see below).
(§2) Cells were diluted to 10^6/ml in culture medium containing either the appropriate concentration of inactivator or an equivalent volume of vehicle (DMSO). Following incubation at 37°C for 2 hours the cells were harvested by centrifugation, washed twice with PBS and the resulting cell pellets (between 1-2 x 10^7 per pellet) stored at -20°C. ATase activity was determined as described above, in duplicate sonicated cell extracts and expressed as the percentage activity remaining based on that present in the untreated controls (for example 350-450 fm/mg in Raji cells).

[3] = tested on: Chinese hamster V79 cells; experiment: Growth inhibition of V79 cells by inactivator alone; assay type: cell-based
Experimental: In order to assess the effects on cell growth alone, Xeroderma pigmentosum cells and Chinese Hamster V79 cells were exposed to increasing concentrations (up to 600µM) of selected inactivators for 2h at 37°. In some cases, the inactivators were allowed to undergo hydrolysis at 37°C for 20 hours and then added to […] in order to assess the extent to which the decomposition products of the agents might inhibit cell growth. After 6 days the extent of cell growth was determined as described above.

ATase [4] = molecular target: T2, ATase (Homo sapiens, UniProt P16455); experiment: Inactivation of ATase activity in WiDr cells; assay type: cell-based; set-up: endogenous in cells; host or cells: Raji
T2 sequence (P16455 1-207): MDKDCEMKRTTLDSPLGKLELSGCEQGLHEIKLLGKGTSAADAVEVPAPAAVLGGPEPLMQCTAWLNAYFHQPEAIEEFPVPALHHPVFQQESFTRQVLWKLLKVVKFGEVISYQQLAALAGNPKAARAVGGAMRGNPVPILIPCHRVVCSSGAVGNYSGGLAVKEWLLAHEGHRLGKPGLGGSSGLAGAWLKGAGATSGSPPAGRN
Experimental: as §1, with “Immediately after sonication, 0.01 volumes of 8.7 mg/ml phenylmethanesulphonylfluoride in ethanol was added and the sonicates centrifuged at 15 000 g for 10 minutes at 4°C to pellet cell debris. The supernatant was kept for determination of ATase activity (see below).” left out

ATase [5] = experiment: Inactivation of ATase in mammalian cells, summary over cell lines; assay type: cell-based; details: range over the cell lines of Table 5 (table head: µM; no unit in the sentence); read-out: I50 values for ATase inactivation in human, rat and Chinese hamster cells
Experimental: Mammalian cells were cultured under standard conditions. For example, Raji (a human lymphoblastoid cell line from a Burkitt's lymphoma) cells were grown in suspension culture in RPMI medium supplemented with 10% horse serum. […]
as §2, with “Following incubation at 37°C for 2 hours the cells were harvested by centrifugation, washed twice with PBS and the resulting cell pellets (between 1-2 x 10^7 per pellet) stored at -20°C.” left out

ATase [6] = molecular target: T2, ATase; experiment: In vitro ATase inactivation assay with purified recombinant human ATase; assay type: biochemical; set-up: made in house; details: for effectiveness in the in vitro ATase inactivation assay compared with BeG: Figure 1, in words
Experimental: The cDNA cloning and overexpression of the human ATase has been reported previously^23. Purification of the recombinant proteins was achieved either by affinity chromatography through a DNA-cellulose column as described by Wilkinson et al.,^25, 26, or by DEAE-cellulose ion-exchange chromatography. For the latter, the ATase protein was partially purified by ammonium sulphate precipitation (30 - 60%) and dialysed against 10 mM Tris-HCl pH 7.5, 1 mM DTT, 2 mM EDTA, 10% glycerol, before loading on a DEAF-cellulose column. The ATase was then eluted with a 0-0.1 M NaCl gradient.
Compounds to be tested were dissolved in DMSO to a final concentration of 10 mM and diluted just before use in buffer I containing 1 mg/ml bovine serum albumin (IBSA). Recombinant ATase was diluted in IBSA and titrated in order that the reaction be conducted under ATase, and not substrate, limiting conditions. In each assay, fixed amounts of ATase (60-75 fmol) were incubated with varying amounts of 0^6-benzylguanine, or test compound in a total volume of 200 µl of IBSA containing 10 µg of calf thymus DNA at 37°C for 1 hour. The [^3H]-methylated-DNA substrate (100 µl containing 6.7 µg of DNA and 100 fmol of 0^6-methylguanine) was added and incubation continued at 37° for 1 hour, until the reaction was completed. Following acid hydrolysis of the DNA as previously described^21 the [^3H]-methylated protein was recovered and quantitated by liquid scintillation counting. Samples were typically assayed in duplicate and experiments repeated several times. I50 is the concentration of inactivator required to produce a 50% reduction in ATase activity.

[7] = 0.1mM in PBS (pH 7-7.2), read-out: T1/2(h) in PBS (converted)
[8] = 0.1mM in buffer I (1mM EDTA, 50mM Tris pH 8.3), read-out: T1/2(h) in Buffer I (converted)

Structure (SMILES)	half-life at 100 µM [1, 7] [h]	half-life at 100 µM [1, 8] [h]	IC50 (ATase [2]; Rat Yoshida cells, 2 hours at 37°C, read-out: Inactivation of ATase in Mammalian Cells I50(µM) Rat Yoshida) [µM]	toxic concentrations in V79 cells relative to those at which sensitization to BCNU was observed ([3]; Figs 5 & 6)	IC50 (ATase [4]; Human WiDr cells, 2 hours at 37°C, read-out: Inactivation of ATase in Mammalian Cells I50(µM) Human WiDr) [µM]	IC50 (ATase [5]) [µM]	IC50 (ATase [6]) [nM]	effectiveness in the in vitro ATase inactivation assay compared with BeG (ATase [6])	IC50 (ATase [2]) [µM]	doses producing some growth inhibition of V79 cells ([3]; inactivator alone, up to 600µM, 2h at 37°, Figure 5)	IC50 (ATase [4]) [µM]
Nc1nc(OCc2ccco2)c2nc[nH]c2n1 [B.4203, O^6-furfurylguanine]	0.17	0.3	0.06	at least 100 times	0.08	0.04 to 0.12	80	not as effective as BeG			
Nc1nc(OCc2cccs2)c2nc[nH]c2n1 [B.4205, O^6-thenylguanine]	0.6	1.2				0.02 to 0.03	18	considerably better	0.02	no such effects were seen	0.02
